Laboratory results from BindingDB's records for doi:10.1016/j.ejmech.2019.111921 (University of Kwazulu-Natal, 2020).

Assays:
[1] = molecular target: T1, Beta-glucuronidase (Rattus norvegicus, UniProt P06760); assay: Inhibition of degranulated rat neutrophils beta-glucuronidase
T1 sequence (P06760 whole entry): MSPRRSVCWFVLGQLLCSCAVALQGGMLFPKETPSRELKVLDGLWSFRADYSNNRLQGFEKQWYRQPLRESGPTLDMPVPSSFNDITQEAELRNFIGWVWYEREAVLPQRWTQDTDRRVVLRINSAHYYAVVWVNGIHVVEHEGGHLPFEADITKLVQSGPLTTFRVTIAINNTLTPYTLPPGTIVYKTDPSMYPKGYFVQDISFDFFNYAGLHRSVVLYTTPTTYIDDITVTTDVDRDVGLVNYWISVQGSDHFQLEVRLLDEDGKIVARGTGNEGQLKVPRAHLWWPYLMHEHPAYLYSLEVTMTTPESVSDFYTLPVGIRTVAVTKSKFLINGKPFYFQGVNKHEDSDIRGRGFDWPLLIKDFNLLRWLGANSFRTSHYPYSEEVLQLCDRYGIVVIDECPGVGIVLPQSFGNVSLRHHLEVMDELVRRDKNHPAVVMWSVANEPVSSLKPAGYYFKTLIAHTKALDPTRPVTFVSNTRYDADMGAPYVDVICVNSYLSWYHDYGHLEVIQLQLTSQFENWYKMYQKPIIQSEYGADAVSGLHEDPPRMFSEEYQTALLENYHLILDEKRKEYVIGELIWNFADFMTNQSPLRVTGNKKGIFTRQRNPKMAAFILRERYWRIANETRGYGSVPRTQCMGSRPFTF

[2] = molecular target: T1, Beta-glucuronidase; assay: Inhibition of degranulated rat peritoneal mast cells beta-glucuronidase
[3] = molecular target: T2, Beta-glucuronidase (Homo sapiens, UniProt P08236); assay: Inhibition of beta-glucuronidase (unknown origin)
T2 sequence (P08236 whole entry): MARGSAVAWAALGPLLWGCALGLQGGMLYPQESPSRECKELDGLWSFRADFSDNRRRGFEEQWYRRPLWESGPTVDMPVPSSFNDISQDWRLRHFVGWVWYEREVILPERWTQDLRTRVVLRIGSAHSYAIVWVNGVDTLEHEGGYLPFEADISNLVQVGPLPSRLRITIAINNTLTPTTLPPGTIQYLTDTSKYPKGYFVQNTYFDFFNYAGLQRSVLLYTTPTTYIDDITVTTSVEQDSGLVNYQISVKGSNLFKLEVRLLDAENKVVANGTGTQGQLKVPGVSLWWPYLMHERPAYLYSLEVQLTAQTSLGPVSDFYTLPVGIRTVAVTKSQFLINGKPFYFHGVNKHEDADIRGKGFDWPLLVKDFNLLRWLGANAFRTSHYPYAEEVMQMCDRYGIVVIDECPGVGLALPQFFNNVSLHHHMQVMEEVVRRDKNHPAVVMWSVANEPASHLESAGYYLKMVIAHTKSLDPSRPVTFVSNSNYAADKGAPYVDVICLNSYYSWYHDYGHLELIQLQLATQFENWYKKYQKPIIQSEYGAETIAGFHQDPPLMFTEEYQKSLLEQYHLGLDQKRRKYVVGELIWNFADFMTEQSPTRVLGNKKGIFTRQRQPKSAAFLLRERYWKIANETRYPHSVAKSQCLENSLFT

Row | SMILES | IC50 [1] [µM] | IC50 [2] [µM] | IC50 [3] [µM]
1 | COc1cc(/C=C/C(=O)OC/C(C)=C\Cc2c(O)ccc(C(=O)/C=C/c3ccc(O)cc3)c2O)ccc1O [Gemichalcone A] | 6.6 | 70 | –
2 | COc1cc([C@@H]2Oc3cc([C@H]4Oc5cc(O)cc(O)c5C(=O)[C@@H]4O)ccc3O[C@H]2CO)ccc1O [Silybin B] | – | – | 1640
3 | C/C(=C/Cc1c(O)ccc(C(=O)/C=C/c2ccc(O)cc2)c1O)COC(=O)/C=C/c1ccc(O)cc1 [gemichalcones B] | 5.8 | – | –
